Numbers after ± are expanded uncertainties.
Details: 101.33 kPa, Liquid; for speed of sound: Pulse-echo method; for mass density: Vibrating tube method

CCCC(=O)[O-].C[NH2+]CCO [N-methyl-2-hydroxyethylammonium butanoate]
Details | mass density [kg/m3] | speed of sound [m/s] | viscosity [mPa·s]
308.15 K | 1032.53 ± 2.2 | 1583.1 ± 2.1 | 162.8 ± 13
308.4 K | 1032.37 ± 2.2 | 1582.3 ± 2.1 | –
308.65 K | 1032.2 ± 2.2 | 1581.5 ± 2.1 | –
308.9 K | 1032.03 ± 2.2 | 1580.7 ± 2.1 | –
309.15 K | 1031.86 ± 2.2 | 1580 ± 2.1 | –
309.4 K | 1031.69 ± 2.2 | 1579.2 ± 2.1 | –
309.65 K | 1031.52 ± 2.2 | 1578.4 ± 2.1 | –
309.9 K | 1031.35 ± 2.2 | 1577.6 ± 2.1 | –
310.15 K | 1031.18 ± 2.2 | 1576.8 ± 2.1 | –
310.4 K | 1031.01 ± 2.2 | 1576 ± 2.1 | –
310.65 K | 1030.85 ± 2.2 | 1575.3 ± 2.1 | 141.4 ± 10
310.91 K | 1030.68 ± 2.2 | 1574.5 ± 2.1 | –
311.16 K | 1030.51 ± 2.2 | 1573.7 ± 2.1 | –
311.4 K | 1030.34 ± 2.2 | 1572.9 ± 2.1 | –
311.65 K | 1030.17 ± 2.2 | 1572.2 ± 2.1 | –
311.91 K | 1030 ± 2.2 | 1571.4 ± 2.1 | –
312.16 K | 1029.83 ± 2.2 | 1570.6 ± 2.1 | –
312.41 K | 1029.65 ± 2.2 | 1569.8 ± 2.1 | –
312.65 K | – | – | 127.1 ± 8.3
312.66 K | 1029.49 ± 2.2 | 1569 ± 2.1 | –
312.91 K | 1029.32 ± 2.2 | 1568.3 ± 2.1 | –
313.16 K | 1029.14 ± 2.2 | 1567.5 ± 2.1 | –
313.4 K | 1028.97 ± 2.2 | 1566.7 ± 2.1 | –
313.66 K | 1028.8 ± 2.2 | 1565.9 ± 2.1 | –
313.9 K | 1028.64 ± 2.2 | 1565.2 ± 2.1 | –
314.15 K | 1028.46 ± 2.2 | 1564.4 ± 2.1 | –
314.4 K | 1028.29 ± 2.2 | 1563.6 ± 2.1 | –
314.65 K | 1028.12 ± 2.2 | 1562.9 ± 2.1 | –
314.9 K | 1027.95 ± 2.2 | 1562.1 ± 2.1 | –
315.15 K | 1027.78 ± 2.2 | 1561.3 ± 2.1 | 107.78 ± 5.9
315.41 K | 1027.61 ± 2.2 | 1560.5 ± 2.1 | –
315.65 K | 1027.43 ± 2.2 | 1559.8 ± 2.1 | –
315.91 K | 1027.26 ± 2.2 | 1559 ± 2.1 | –
316.16 K | 1027.09 ± 2.2 | 1558.2 ± 2.1 | –
316.41 K | 1026.92 ± 2.2 | 1557.5 ± 2.1 | –
316.66 K | 1026.75 ± 2.2 | 1556.7 ± 2.1 | –
316.91 K | 1026.58 ± 2.2 | 1555.9 ± 2.1 | –
317.16 K | 1026.41 ± 2.2 | 1555.2 ± 2.1 | –
317.4 K | 1026.23 ± 2.2 | 1554.3 ± 2.1 | –
317.66 K | 1026.06 ± 2.2 | 1553.4 ± 2.1 | –
317.91 K | 1025.89 ± 2.2 | 1552.6 ± 2.1 | –
318.15 K | – | – | 93.33 ± 4.3
318.16 K | 1025.72 ± 2.2 | 1551.9 ± 2.1 | –
318.41 K | 1025.55 ± 2.2 | 1551.1 ± 2.1 | –
318.65 K | 1025.37 ± 2.2 | 1550.3 ± 2.1 | –
318.9 K | 1025.2 ± 2.2 | 1549.5 ± 2.1 | –
319.16 K | 1025.03 ± 2.2 | 1548.7 ± 2.1 | –
319.41 K | 1024.86 ± 2.2 | 1548 ± 2.1 | –
319.65 K | 1024.69 ± 2.2 | 1547.2 ± 2.1 | –
319.91 K | 1024.51 ± 2.2 | 1546.4 ± 2.1 | –
320.15 K | – | – | 79.57 ± 3.1
320.16 K | 1024.34 ± 2.2 | 1545.6 ± 2.1 | –
320.41 K | 1024.17 ± 2.2 | 1544.8 ± 2.1 | –
320.65 K | 1024 ± 2.2 | 1544 ± 2.1 | –
320.91 K | 1023.82 ± 2.2 | 1543.3 ± 2.1 | –
321.15 K | 1023.65 ± 2.2 | 1542.5 ± 2.1 | –
321.41 K | 1023.47 ± 2.2 | 1541.7 ± 2.1 | –
321.66 K | 1023.3 ± 2.2 | 1540.9 ± 2.1 | –
321.9 K | 1023.13 ± 2.2 | 1540.1 ± 2.1 | –
322.15 K | 1022.96 ± 2.2 | 1539.3 ± 2.1 | –
322.41 K | 1022.78 ± 2.2 | 1538.6 ± 2.1 | –
322.65 K | 1022.61 ± 2.2 | 1537.8 ± 2.1 | –
